In brackets after ≈: the same amount, converted by molar mass.
Molecular target: α-amylase
Assay: DNS colorimetric alpha-amylase inhibition assay with starch
Format: biochemical

Structure (SMILES) | IC50 [µg/mL]
COc1cc(O[C@@H]2O[C@H](CO[C@@H]3OC[C@@H](O)[C@H](O)[C@H]3O)[C@@H](O)[C@H](O)[C@H]2O)c2c(=O)cc(-c3ccc(O)cc3)oc2c1 [compound 1, 5-[(β)-D-xylopyranoside-(1'''→6'')-β-D-glucopyranoside] 7-Methoxy apigenin] | 1320 (≈ 2280 µM)
COc1cc2cc(Oc3ccc4ccc(=O)oc4c3)c(=O)oc2cc1O [compound 2, 6'-Methoxy-7'-hydroxy-3'-O-7-bicoumarin] | 710 (≈ 2020 µM)
COc1cc([C@H]2OC[C@H]3[C@@H]2CO[C@@H]3c2ccc(O)c(OC)c2)ccc1O [compound 3, 4,4'-dihydroxy-3,3'-dimethoxy-7, 9’:7’, 9-diepoxylignan] | 1810 (≈ 5050 µM)
O=c1cc(-c2ccc(O)c(O)c2)oc2cc(O)cc(O)c12 [luteolin, reference compound] | 630 (≈ 2200 µM)

From PMC12606866, “Phenolic Compounds from Diarthron iranica: Enzymatic and in Silico Insights Into α-Amylase Inhibitory Activity” (Iranian Journal of Pharmaceutical Research : IJPR, 2025)
